Experimental data reported in ChEMBL document CHEMBL1201862, “PubChem BioAssay data set” (2004).
Active and inactive are the calls of the source.

How the values were obtained:
[1] = molecular target: Beta-galactosidase (Escherichia coli, UniProt Q8VNN2); assay: PubChem AID 485352; assay type: functional
[2] = molecular target: T1, Type-1 angiotensin II receptor (Homo sapiens, UniProt P30556); assay: antagonism of angiotensin II type 1 receptor – cell-based, uHTS hits, selectivity assay for APJ receptor antagonist project, dose response (AID 463214); assay type: functional;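 further: antagonist potency against angiotensin II stimulated AT1 response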
T1 sequence (P30556 whole entry): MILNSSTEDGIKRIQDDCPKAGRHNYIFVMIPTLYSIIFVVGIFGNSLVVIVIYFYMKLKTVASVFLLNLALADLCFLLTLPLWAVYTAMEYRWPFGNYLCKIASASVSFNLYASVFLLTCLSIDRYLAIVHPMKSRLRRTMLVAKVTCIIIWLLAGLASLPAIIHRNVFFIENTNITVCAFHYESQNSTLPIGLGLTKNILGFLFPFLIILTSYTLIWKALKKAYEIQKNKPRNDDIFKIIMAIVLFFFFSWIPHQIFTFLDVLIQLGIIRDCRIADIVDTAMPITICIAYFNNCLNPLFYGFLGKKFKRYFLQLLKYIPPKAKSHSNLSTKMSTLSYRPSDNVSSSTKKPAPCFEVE

[3] = cells; assay type: functional, cell-based
[4] = system: A-375; assay: MITF: Counter assay: A375 proliferation Measured in Cell-Based System Using Plate Reader - 2084-03_Inhibitor_Dose_DryPowder_Activity. [Related pubchem assays (depositor defined):AID488944]; assay type: functional; conditions: Homo sapiens
[5] = system: A-375; assay: proliferation inhibition in MITF-low A375 cells – cell-based, cherry-pick samples, set 2, counter-screen for MITF modulator project, dose response (AID 540335); assay type: functional; conditions: Homo sapiens
[6] = molecular target: Voltage-gated inwardly rectifying potassium channel KCNH2 (Homo sapiens, UniProt Q12809); conditions: Potency;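 further: confirmatory quantitative high-throughput screen measuring inhibition of hERG channel activity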
Sequence of Voltage-gated inwardly rectifying potassium channel KCNH2 (Q12809 whole entry): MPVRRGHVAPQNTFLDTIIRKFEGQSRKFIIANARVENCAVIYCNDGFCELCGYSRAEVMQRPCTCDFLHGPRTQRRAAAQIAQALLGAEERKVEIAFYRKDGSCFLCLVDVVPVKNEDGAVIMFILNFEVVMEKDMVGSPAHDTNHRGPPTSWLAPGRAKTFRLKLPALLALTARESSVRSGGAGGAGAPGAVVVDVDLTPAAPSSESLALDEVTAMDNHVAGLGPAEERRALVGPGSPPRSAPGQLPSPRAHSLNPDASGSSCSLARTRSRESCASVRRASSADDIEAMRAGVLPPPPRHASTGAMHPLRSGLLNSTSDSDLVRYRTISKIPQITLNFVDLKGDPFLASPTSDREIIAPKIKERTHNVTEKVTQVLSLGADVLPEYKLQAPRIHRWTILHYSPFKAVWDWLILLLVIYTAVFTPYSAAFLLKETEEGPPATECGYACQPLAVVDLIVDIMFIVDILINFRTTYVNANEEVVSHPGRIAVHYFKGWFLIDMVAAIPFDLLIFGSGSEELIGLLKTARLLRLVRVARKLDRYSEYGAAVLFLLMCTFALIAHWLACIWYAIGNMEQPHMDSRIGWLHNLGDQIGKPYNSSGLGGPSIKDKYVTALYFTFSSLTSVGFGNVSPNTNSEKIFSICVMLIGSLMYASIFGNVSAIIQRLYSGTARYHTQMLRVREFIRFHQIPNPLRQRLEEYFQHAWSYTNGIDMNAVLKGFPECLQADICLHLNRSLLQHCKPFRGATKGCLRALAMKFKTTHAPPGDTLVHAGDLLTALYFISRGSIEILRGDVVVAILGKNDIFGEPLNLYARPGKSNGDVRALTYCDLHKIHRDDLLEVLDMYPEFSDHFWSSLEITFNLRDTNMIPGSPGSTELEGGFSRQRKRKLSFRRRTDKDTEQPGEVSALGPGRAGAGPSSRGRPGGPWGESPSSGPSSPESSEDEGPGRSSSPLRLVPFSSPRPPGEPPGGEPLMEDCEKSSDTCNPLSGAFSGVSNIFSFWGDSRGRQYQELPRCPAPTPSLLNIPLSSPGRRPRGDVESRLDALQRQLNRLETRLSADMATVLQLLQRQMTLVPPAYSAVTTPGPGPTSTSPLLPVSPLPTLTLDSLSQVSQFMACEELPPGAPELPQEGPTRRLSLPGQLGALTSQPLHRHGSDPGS

[7] = system: HEK293; assay: cells; assay type: functional, cell-based; conditions: Homo sapiens
[8] = molecular target: T2, Nuclear receptor subfamily 0 group B member 1 (Homo sapiens, UniProt P51843); assay: Luminescence-based cell-based high throughput dose response assay for inhibitors of the orphan nuclear receptor subfamily 0, group B, member 1 (DAX1; NR0B1). [Related pubchem assays (depositor defined):AID504766, AID504790]; assay type: functional
T2 sequence (P51843 whole entry): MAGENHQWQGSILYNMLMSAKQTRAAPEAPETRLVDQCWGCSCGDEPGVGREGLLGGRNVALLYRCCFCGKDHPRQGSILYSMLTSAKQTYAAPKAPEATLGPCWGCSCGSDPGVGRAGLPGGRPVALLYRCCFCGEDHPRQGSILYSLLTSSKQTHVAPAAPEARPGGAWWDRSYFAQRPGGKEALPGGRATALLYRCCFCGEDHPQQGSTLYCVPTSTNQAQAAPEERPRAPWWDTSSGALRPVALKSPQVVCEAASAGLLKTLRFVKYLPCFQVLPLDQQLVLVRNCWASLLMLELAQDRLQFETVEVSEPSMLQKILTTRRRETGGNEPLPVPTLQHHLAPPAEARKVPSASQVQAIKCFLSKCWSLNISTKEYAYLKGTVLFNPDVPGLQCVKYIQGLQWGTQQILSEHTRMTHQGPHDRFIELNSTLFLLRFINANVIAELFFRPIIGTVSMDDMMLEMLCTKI

[9] = luciferase reporter signal suppression in cells – H4 neuroglioma cells, luminescence, dose response (AID 1990); assay type: functional, cell-based
[10] = decrease of insulin promoter-GFP reporter – imaging, high-content screening, mouse beta cells (AID 1628); assay type: functional; conditions: MIN6
[11] = Luminescence Cell-Based Dose Response HTS to Identify Inhibitors of 5'UTR Stem-Loop Driven Prion Protein mRNA Translation in H4 Neuroglioblastoma Cells. [Related pubchem assays: 1827 (Project Summary), 1813 (Primary HTS)]; assay type: functional
[12] = MIN6 cell viability loss – mouse insulinoma, cytotoxicity control, dose response (AID 2122); assay type: functional;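 further: confirmatory high-throughput counterscreen run to flag cytotoxic compounds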
[13] = alpha-synuclein stem-loop luciferase translation blockers – H4 neuroglioma cells, luminescence, confirmation (AID 1988); assay type: functional, cell-based
[14] = Trypanosoma cruzi growth suppression in host cells – NIH3T3 host cells, beta-gal luminescence, confirmation (AID 2044); assay type: functional, cell-based;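 further: intracellular parasites grown in NIH/3T3 mouse fibroblasts as host cells; luminescent beta-galactosidase reporter signal from transgenic T. cruzi replicating inside host cells; inhibitors lower the luminescence signal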
[15] = cells; assay type: functional, cell-based; remark: listed apart in the source
[16] = NIH3T3 cell viability loss – ATP luminescence, mouse fibroblasts, counter-screen, dose response (AID 2010); assay type: functional, cell-based;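 further: cells exposed to compound for about 90 hours before reading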
[17] = system: HEK293; assay: EBV LMP1 TES2 canonical NF-kB signalling blockers – cell-based, HEK293, luciferase, cherry-pick, dose response (AID 588343); assay type: functional; conditions: Homo sapiens
[18] = molecular target: Heat shock protein HSP 90-alpha (Homo sapiens, UniProt P07900); assay type: functional, organism-based
[19] = molecular target: T3, Latent membrane protein 1 (Human herpesvirus 4 (strain B95-8), UniProt P03230); assay: LMP1 TES1 pathway selectivity over dsRED control – imaging, HEK293T, dual-color eGFP/dsRED, cherry-picks, selectivity assay for LMP1 NF-kB inhibitor project, dose response (AID 588398); assay type: functional, cell-based
T3 sequence (P03230 whole entry): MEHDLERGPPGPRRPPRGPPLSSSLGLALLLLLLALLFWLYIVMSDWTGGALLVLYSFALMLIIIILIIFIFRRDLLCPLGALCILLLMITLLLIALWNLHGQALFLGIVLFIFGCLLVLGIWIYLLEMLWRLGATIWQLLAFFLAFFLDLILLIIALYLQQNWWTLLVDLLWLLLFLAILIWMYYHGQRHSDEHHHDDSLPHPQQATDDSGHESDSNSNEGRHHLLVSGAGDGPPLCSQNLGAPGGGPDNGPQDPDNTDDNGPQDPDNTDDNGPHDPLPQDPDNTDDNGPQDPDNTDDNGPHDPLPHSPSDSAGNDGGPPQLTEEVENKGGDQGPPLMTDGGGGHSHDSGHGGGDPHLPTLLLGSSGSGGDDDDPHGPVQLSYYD

[20] = molecular target: Cysteine protease ATG4B (Homo sapiens, UniProt Q9Y4P1); assay type: functional;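 further: Fluorescence-based dose-response confirmation assay measuring inhibition of ATG4B activity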
Sequence of Cysteine protease ATG4B (Q9Y4P1 whole entry): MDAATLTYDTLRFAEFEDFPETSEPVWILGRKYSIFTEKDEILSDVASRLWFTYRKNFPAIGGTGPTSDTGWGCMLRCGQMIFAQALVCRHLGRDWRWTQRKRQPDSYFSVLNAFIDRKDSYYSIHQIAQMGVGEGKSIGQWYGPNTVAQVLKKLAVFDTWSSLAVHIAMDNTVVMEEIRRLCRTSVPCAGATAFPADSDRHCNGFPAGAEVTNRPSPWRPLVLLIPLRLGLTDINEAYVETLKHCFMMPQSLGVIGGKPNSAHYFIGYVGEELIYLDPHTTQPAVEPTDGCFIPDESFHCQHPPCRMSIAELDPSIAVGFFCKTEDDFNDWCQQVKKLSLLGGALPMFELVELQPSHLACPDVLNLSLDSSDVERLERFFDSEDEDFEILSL

[21] = molecular target: Phospholipase A2 (Homo sapiens, UniProt P04054); assay type: functional;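 further: confirmatory dose-response counterscreen on phospholipase A2, testing hits that came from an ultra-high-throughput screen for ATG4B inhibitors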
Sequence of Phospholipase A2 (P04054 whole entry): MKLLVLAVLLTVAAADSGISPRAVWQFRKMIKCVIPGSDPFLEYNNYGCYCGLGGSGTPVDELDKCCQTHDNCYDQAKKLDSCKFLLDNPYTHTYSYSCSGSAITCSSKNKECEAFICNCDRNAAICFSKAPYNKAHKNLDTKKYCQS

[22] = molecular target: T4, Short transient receptor potential channel 4 (Mus musculus, UniProt Q9QUQ5); assay: block of DAMGO-driven TRPC4 calcium entry – cell-based, HEK293 TRPC4/mu-opioid, Fluo-4 calcium, dose response (AID 434942); assay type: functional;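 further: potency of inhibitors blocking the TRPC4 calcium response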
T4 sequence (Q9QUQ5 whole entry): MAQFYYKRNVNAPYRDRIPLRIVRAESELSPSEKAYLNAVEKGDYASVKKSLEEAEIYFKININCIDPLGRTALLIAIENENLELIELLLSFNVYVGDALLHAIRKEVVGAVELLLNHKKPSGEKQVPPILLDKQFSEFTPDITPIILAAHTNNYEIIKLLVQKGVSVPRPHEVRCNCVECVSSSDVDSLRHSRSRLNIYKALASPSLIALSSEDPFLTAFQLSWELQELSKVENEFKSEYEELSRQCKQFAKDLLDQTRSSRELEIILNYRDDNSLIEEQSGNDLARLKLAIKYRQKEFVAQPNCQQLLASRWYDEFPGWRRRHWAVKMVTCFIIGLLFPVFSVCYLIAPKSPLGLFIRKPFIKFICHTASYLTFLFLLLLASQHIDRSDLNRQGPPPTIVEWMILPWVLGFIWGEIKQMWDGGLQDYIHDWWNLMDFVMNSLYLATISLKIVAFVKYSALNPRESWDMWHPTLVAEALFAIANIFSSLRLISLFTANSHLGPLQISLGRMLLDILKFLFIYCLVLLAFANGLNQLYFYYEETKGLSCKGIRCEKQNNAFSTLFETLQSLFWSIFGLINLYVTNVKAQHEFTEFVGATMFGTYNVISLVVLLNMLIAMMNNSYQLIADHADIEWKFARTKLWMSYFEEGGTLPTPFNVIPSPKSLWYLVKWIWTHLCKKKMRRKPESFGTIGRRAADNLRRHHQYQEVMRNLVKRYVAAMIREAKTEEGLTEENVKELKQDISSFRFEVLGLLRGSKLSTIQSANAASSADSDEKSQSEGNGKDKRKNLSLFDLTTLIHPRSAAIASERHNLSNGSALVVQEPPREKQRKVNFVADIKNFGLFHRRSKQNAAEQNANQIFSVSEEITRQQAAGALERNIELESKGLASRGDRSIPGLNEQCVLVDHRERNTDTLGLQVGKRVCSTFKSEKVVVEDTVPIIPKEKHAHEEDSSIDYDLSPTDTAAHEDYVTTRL

[23] = molecular target: Genome polyprotein (dengue virus type 2, UniProt P29990); assay: flavivirus cap methylation enzyme inhibition – biochemical, confirmation dose response, primary screen (AID 588689); assay type: functional
Sequence of Genome polyprotein (P29990 2492-3391 limits assumed): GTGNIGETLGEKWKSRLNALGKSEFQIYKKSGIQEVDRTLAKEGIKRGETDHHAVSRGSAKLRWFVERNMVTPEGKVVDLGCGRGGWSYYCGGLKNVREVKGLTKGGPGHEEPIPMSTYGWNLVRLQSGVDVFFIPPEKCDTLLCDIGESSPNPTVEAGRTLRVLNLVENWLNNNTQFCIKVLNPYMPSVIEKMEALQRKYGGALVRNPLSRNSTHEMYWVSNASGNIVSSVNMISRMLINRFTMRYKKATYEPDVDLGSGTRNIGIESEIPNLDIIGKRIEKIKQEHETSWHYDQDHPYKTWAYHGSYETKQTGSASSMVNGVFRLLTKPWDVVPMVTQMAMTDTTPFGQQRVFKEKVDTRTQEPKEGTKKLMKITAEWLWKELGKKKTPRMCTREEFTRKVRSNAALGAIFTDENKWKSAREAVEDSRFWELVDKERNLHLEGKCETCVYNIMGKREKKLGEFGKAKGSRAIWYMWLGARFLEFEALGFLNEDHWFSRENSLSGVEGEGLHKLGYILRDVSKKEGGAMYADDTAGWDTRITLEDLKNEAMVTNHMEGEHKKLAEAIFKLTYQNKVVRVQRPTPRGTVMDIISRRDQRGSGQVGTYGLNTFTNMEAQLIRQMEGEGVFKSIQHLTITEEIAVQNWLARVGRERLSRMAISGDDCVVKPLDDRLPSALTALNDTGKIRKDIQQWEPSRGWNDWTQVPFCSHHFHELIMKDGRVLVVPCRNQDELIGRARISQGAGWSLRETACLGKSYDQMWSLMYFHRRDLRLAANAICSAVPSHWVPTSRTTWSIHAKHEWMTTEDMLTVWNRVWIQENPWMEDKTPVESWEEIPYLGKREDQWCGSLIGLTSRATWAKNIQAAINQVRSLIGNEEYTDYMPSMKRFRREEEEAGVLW

[24] = molecular target: Trypsin (Sus scrofa, UniProt P00761); assay: trypsin protease activity blockade – biochemical, quenched peptide fluorescence, cherry-pick, selectivity assay for Rce1 protease inhibitor project, dose response (AID 488789)
Sequence of Trypsin (P00761 whole entry): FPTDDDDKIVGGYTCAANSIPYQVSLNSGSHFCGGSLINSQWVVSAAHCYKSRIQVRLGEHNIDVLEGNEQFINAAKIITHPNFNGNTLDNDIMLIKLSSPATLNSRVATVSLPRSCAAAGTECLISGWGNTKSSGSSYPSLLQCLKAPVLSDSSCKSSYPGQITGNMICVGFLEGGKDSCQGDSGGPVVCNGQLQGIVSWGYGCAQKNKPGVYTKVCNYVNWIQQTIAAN

[25] = molecular target: T5, CAAX prenyl protease 2 (Saccharomyces cerevisiae S288c, UniProt Q03530); assay type: biochemical
T5 sequence (Q03530 whole entry): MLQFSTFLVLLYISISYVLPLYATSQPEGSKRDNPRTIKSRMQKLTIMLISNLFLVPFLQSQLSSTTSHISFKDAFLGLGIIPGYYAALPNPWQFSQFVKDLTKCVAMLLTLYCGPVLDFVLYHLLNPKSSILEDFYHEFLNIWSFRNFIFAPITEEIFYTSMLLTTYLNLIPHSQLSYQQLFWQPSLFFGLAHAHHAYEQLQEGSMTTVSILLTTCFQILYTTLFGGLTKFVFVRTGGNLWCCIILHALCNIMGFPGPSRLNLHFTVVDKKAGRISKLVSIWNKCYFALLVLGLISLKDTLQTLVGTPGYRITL

[26] = molecular target: CAAX prenyl protease 2 (Homo sapiens, UniProt Q9Y256); assay: inhibition of Ras-converting CAAX protease Rce1 – biochemical, yeast membranes, quenched-peptide fluorescence, cherry-pick, dose response (AID 588849)
Sequence of CAAX prenyl protease 2 (Homo sapiens, UniProt Q9Y256) (Q9Y256 whole entry, the tested form may be a part): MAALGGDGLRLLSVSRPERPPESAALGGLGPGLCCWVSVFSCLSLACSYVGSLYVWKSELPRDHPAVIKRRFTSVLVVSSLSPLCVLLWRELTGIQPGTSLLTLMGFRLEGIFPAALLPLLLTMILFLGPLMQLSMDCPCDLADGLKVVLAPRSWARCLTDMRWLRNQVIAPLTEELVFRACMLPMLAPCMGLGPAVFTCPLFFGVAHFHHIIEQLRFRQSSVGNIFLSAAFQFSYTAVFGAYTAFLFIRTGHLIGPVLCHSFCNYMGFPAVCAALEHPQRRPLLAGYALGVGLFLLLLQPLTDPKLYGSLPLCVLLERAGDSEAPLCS

[27] = inhibition of ARNT PAS-B/TACC3 complex formation – biochemical, AlphaScreen, cherry-picked samples, confirmation (AID 651703); assay type: functional, Homo sapiens;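 further: His-tagged ARNT PAS-B domain paired with GST-TACC3 E629A dimer coactivator fragment; potency of inhibitors that break up the complex and lower AlphaScreen signal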

Sequence of Beta-galactosidase (Q8VNN2 whole entry): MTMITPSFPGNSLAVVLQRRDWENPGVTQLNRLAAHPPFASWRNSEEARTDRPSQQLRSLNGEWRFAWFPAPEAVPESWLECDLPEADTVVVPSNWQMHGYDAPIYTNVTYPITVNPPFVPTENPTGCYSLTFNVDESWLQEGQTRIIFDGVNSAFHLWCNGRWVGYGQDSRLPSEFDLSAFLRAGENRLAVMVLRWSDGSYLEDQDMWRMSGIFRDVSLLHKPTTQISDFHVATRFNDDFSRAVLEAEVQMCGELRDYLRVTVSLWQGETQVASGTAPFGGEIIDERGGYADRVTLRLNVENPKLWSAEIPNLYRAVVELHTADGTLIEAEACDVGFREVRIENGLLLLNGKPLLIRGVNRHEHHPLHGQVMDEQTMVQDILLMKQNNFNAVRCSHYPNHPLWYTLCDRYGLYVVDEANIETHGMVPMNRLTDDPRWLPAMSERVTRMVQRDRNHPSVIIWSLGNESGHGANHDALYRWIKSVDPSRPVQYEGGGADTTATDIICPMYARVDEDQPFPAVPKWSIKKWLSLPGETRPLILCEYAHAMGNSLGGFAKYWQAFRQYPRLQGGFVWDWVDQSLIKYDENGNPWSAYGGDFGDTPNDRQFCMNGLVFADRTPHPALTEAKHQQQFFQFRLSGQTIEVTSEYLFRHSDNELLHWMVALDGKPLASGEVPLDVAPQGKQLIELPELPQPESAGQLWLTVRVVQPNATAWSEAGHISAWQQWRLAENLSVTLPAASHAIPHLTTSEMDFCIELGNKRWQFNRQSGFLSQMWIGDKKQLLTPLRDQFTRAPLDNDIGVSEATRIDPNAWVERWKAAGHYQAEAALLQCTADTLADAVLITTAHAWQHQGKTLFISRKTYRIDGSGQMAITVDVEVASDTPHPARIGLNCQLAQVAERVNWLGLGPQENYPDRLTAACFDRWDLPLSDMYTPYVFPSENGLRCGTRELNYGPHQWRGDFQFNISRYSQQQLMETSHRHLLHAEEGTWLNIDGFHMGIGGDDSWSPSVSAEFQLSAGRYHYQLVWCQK

**Q.** Which EC50 [1] does the source give for O=C(CNC(=O)c1ccc(Br)o1)OCC(=O)c1cccc([N+](=O)[O-])c1 here?
**A.** The EC50 was > 40 µM (inactive).

**Q.** What about the IC50 [2] of the same compound?
**A.** The IC50 was 27.3 µM (not active).

**Q.** Which EC50 [3] does the source give for COc1ccc(C(=O)CCNc2ccc(F)cc2)cc1 here?
**A.** The EC50 was > 350 µM (not active).

**Q.** And the AC50 [4]?
**A.** The AC50 was > 35 µM (active).

**Q.** And the AC50 [5]?
**A.** Its AC50 is > 35 µM (active).

**Q.** For CC/C=C/C/C=C/C/C=C/CCCCCCCC(=O)OCC, which AC50 [6] is on record?
**A.** Its AC50 is 28.2 µM (inconclusive).

**Q.** Which IC50 [7] does the source give for O=C(O)Cc1nn(Cc2ccc(Cl)cc2)c(=O)c2ccccc12 here?
**A.** Its IC50 is > 67.5 µM (inactive).

**Q.** And the IC50 [8]?
**A.** Its IC50 is > 67.5 µM (inactive).

**Q.** Which results are given for O=C(CCc1ccccc1)NC(c1cccs1)c1cc(Cl)c2cccnc2c1O (stereo not drawn)?
**A.** EC50 [9]: 9.65 µM (active); IC50 [10]: 1.77 µM (active); EC50 [3]: 9.12 µM (active); EC50 [11]: 0.219 µM (active); IC50 [12]: 1.78 µM (active); EC50 [13]: 4.12 µM (inconclusive); EC50 [14]: 0.536 µM (active); EC50 [15]: > 350 µM (not active); EC50 [16]: 1.61 µM (active); AC50 [17]: 9.35 µM (active); AC50 [18]: 16.9 µM (active); AC50 [19]: 10.2 µM (active)

**Q.** What does the source list for CC(=O)c1csc(COc2ccc(Cl)cc2)n1?
**A.** IC50 [7]: > 67.6 µM (inactive); IC50 [8]: > 67.6 µM (inactive)

**Q.** Which IC50 [20] does the source give for CCCCCCOc1ccc(N2C(=O)CC(SC(=N)N/N=C(\C)c3cccs3)C2=O)cc1 (stereo not drawn) here?
**A.** The IC50 was 9.46 µM (active).

**Q.** And the IC50 [21]?
**A.** Its IC50 is 5.58 µM (active).

**Q.** For CCCCCCCCCCCCCCC[C@H](O)[C@H](N)CO, which AC50 [6] is on record?
**A.** Its AC50 is 35.5 µM (inconclusive).

**Q.** Which results are given for Cc1ccc(/C=C2\SC(=S)N(C(Cc3ccccc3)C(=O)O)C2=O)cc1 (stereo not drawn)?
**A.** EC50 [22]: 5.96 µM (active); IC50 [20]: 9.14 µM (active); IC50 [21]: 10.6 µM (active); IC50 [23]: 39.1 µM (active)

**Q.** With COc1ccccc1CNC(=O)c1ccccc1N as the compound, how does the AC50 [24] read?
**A.** Its AC50 is 6.1 µM (active).

**Q.** What about the AC50 [25] of the same compound?
**A.** The AC50 was 6.36 µM (active).

**Q.** What about the AC50 [26] of the same compound?
**A.** Its AC50 is 4.31 µM (active).

**Q.** What does the source list for Cc1ccc(/C=N/NC(=S)N2CCOCC2)cc1?
**A.** EC50 [1]: > 40 µM (inactive); IC50 [2]: 8.6 µM (active); AC50 [27]: 112 µM (active)

**Q.** With O=C(COc1ccc2ccc(=O)oc2c1)N1CCC(C(=O)O)(c2ccccc2)CC1 as the compound, how does the AC50 [26] read?
**A.** Its AC50 is 98.6 µM (active).

**Q.** Which AC50 [4] does the source give for CCOC(=O)c1cc(-c2ccc(OC)cc2)[nH]n1 here?
**A.** Its AC50 is > 35 µM (active).

**Q.** What about the AC50 [5] of the same compound?
**A.** Its AC50 is > 35 µM (active).
